Results reported in paper PMC9983021, “Novel GluN2B-Selective NMDA Receptor Negative Allosteric Modulator Possesses Intrinsic Analgesic Properties and Enhances Analgesia of Morphine in a Rodent Tail Flick Pain Model” (ACS Chemical Neuroscience, 2023).

Tests used:
5-HT3A = target: T1, 5-HT3A (Homo sapiens, UniProt P46098); experiment: Off-target ligand-gated ion channels in Xenopus oocytes; format: cell-based; settings: agonist 100 µM serotonin; mean ± SEM
T1 construct: expressed in transfected cells; host or cells: Xenopus oocytes
Procedure: (§1) EU93-108 was further examined for its behavior against common off-target receptors. First, selectivity for GluN2B over other ion channels in the brain was examined via two-electrode voltage clamp recordings of Xenopus oocytes expressing AMPA, kainate, nicotinic acetylcholine, serotonin, GABA, glycine, and ATP receptors. Current responses were tested with saturating concentrations of agonist in both the absence and presence of 10 μM EU93-108, and confirmed selectivity for GluN2B-containing NMDA receptors over AMPA, kainate, GABA, glycine, ATP, and 5-HT3A receptors (Supporting Table S3).
(§2) Receptor Agonist % Control
(§3) Supplemental Table S3. Off-target actions of EU93-108 at ligand-gated ion channels expressed in Xenopus oocytes. The mean ± standard error of the mean for agonist plus 10 μM EU93-108 as a percentage of agonist in vehicle are given for each compound and receptor tested. Number of oocytes tested is given in parentheses.

α1β2γ2S-GABAA = target: T2, α1β2γ2S-GABAA (Homo sapiens, UniProt P14867+P18507+P47870); experiment: as above; format: cell-based; settings: agonist 100 µM GABA; mean ± SEM
T2 construct: expressed in transfected cells; host or cells: Xenopus oocytes
Procedure: as §1, §2, §3

α4β2-nACh = target: T3, α4β2-nACh (Homo sapiens, UniProt P17787+P43681); experiment: as above; format: cell-based; settings: agonist 10 µM acetylcholine; mean ± SEM
T3 construct: expressed in transfected cells; host or cells: Xenopus oocytes
Procedure: as §1, §2, §3

GluA2-R607Q = target: T4, GluA2-R607Q (Homo sapiens, UniProt P42262); experiment: as above; format: cell-based; settings: agonist 100 µM glutamate; mean ± SEM
T4 construct: expressed in transfected cells; host or cells: Xenopus oocytes
Procedure: as §1, §2, §3

ρ-GABAC = experiment: as above; format: cell-based; settings: agonist 100 µM GABA; mean ± SEM
Procedure: as §1, §2, §3

hGluA3-L531Y = target: T5, hGluA3-L531Y (Homo sapiens, UniProt P42263, L513Y); experiment: as above; format: cell-based; settings: agonist 100 µM glutamate; mean ± SEM
T5 construct: expressed in transfected cells; host or cells: Xenopus oocytes
Procedure: as §1, §2, §3

hGluN1/GluN3A = target: T6, hGluN1/GluN3A (Homo sapiens, UniProt Q05586+Q8TCU5); experiment: as above; format: cell-based; settings: agonist 100 µM glycine; mean ± SEM
T6 construct: expressed in transfected cells; host or cells: Xenopus oocytes
Procedure: as §1, §2, §3

rGluN1/GluN3B = target: T7, rGluN1/GluN3B (Rattus norvegicus, UniProt P35439+Q8VHN2); experiment: as above; format: cell-based; settings: agonist 100 µM glycine; mean ± SEM
T7 construct: expressed in transfected cells; host or cells: Xenopus oocytes
Procedure: as §1, §2, §3

α1-Glycine = target: T8, α1-Glycine (Homo sapiens, UniProt P23415); experiment: as above; format: cell-based; settings: agonist 100 µM glycine; mean ± SEM
T8 construct: expressed in transfected cells; host or cells: Xenopus oocytes
Procedure: as §1, §2, §3

α7-nACh = target: T9, α7-nACh (Homo sapiens, UniProt P36544); experiment: as above; format: cell-based; settings: agonist 300 µM acetylcholine; mean ± SEM
T9 construct: expressed in transfected cells; host or cells: Xenopus oocytes
Procedure: as §1, §2, §3

GluK2 = target: T10, GluK2 (Homo sapiens, UniProt Q13002); experiment: as above; format: cell-based; settings: agonist 100 µM glutamate; mean ± SEM
T10 construct: expressed in transfected cells; host or cells: Xenopus oocytes
Procedure: as §1, §2, §3

GluA1 = target: T11, GluA1 (Homo sapiens, UniProt P42261); experiment: as above; format: cell-based; settings: agonist 100 µM glutamate; mean ± SEM
T11 construct: expressed in transfected cells; host or cells: Xenopus oocytes
Procedure: as §1, §2, §3

GluN1/GluN2B = GluN1/GluN2B (Rattus norvegicus, UniProt P35439+Q00960)
C57BL/6J mice = experiment: Hot water tail immersion test, acute co-administration with 5 mg/kg morphine; format: in vivo; settings: for lowest dose that significantly increased latency: plus 5 mg/kg morphine s.c.
Procedure: We were next interested in evaluating the effects of EU93-108 when given acutely in combination with morphine. 5 mg/kg morphine was chosen because this dose elicited an approximately half-maximal response in our initial morphine dose–response curve (Supporting Figure S3). This half-maximal response would allow us to see any changes in tail flick latency that EU93-108 might elicit.
Four treatment groups and one control group were used (n = 8 per group). The control group received vehicle (10% DMSO, 20% PEG, 2% DMA in water) i.p. plus 5 mg/kg morphine s.c. formulated in normal saline, and groups 1–4 were randomly assigned one dose of EU93-108 i.p. plus 5 mg/kg morphine s.c. The doses used were the same as in the intrinsic analgesia experiments.
All animal studies performed at Emory have been approved by the Institutional Animal Care and Use Committee at Emory University. Male and female C57BL/6J mice weighing between 20 and 30 g were housed five per cage and given ad libitum access to food and water. The mice were 8–10 weeks of age at the time of experimentation. Animal holding rooms operated on a 12 h dark/light cycle with the dark cycle from 7:00 pm to 7:00 am. Mice were allowed to acclimate in cages for one week after arrival. […]
Mouse weights were recorded on the day of each experiment. […] Three recordings were taken for each mouse, and each data point is expressed as the mean of the three recordings. […] The identities were not decoded until the data were analyzed.
Prism 9.3.1 software (GraphPad, San Diego, CA) was used for all data analysis and visualization. Data for intrinsic antinociception was analyzed using one-way ANOVA and Dunnett’s post hoc test for multiple comparisons where each group was compared to vehicle. Data for acute morphine potentiation experiments were analyzed using one-way ANOVA and Tukey’s post hoc test for multiple comparisons was also used, where each group mean was compared to the mean of every other group. Data for tolerance experiments were analyzed using repeated measures two-way ANOVA and Bonferroni post hoc analysis. […]

GluN1/GluN2B, sequence (Q00960 27-1482, other chains not shown): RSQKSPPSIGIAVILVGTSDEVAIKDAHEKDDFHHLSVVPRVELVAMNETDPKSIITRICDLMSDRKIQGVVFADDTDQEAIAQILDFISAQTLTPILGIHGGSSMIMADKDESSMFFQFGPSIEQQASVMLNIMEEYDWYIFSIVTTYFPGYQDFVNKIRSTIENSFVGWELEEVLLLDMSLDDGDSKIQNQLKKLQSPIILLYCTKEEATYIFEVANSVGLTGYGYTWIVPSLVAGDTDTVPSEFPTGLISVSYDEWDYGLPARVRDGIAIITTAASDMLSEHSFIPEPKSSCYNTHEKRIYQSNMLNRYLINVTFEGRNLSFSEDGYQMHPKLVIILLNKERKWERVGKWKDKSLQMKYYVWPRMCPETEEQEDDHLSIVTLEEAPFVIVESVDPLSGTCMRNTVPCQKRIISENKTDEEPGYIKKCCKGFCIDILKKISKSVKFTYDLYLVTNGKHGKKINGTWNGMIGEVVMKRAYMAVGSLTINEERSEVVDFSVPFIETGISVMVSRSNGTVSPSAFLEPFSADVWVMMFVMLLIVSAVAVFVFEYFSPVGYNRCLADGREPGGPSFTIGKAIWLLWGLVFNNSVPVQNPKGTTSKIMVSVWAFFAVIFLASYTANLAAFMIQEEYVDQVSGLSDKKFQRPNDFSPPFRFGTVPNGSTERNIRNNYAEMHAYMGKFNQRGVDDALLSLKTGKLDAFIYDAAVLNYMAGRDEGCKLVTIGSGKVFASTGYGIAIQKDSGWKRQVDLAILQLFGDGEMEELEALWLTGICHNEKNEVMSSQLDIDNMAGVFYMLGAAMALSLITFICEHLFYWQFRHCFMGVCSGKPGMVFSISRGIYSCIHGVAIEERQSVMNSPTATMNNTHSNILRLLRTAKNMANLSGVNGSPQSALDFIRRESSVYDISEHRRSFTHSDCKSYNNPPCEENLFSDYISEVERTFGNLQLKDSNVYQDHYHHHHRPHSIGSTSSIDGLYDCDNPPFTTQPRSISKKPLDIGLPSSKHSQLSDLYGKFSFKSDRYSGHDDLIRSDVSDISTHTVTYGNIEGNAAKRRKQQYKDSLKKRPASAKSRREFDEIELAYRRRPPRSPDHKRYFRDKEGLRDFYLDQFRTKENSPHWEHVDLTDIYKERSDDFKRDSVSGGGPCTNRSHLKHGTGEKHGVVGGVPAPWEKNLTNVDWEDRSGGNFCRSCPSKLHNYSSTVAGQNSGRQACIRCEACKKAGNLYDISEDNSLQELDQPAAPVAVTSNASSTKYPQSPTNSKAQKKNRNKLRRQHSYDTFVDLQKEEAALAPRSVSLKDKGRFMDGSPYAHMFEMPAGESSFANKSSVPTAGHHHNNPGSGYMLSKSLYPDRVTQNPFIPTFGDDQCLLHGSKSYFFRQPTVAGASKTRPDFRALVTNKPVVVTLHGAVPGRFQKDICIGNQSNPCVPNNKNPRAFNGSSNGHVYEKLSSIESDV
T4 sequence (P42262 25-883, stated change not applied): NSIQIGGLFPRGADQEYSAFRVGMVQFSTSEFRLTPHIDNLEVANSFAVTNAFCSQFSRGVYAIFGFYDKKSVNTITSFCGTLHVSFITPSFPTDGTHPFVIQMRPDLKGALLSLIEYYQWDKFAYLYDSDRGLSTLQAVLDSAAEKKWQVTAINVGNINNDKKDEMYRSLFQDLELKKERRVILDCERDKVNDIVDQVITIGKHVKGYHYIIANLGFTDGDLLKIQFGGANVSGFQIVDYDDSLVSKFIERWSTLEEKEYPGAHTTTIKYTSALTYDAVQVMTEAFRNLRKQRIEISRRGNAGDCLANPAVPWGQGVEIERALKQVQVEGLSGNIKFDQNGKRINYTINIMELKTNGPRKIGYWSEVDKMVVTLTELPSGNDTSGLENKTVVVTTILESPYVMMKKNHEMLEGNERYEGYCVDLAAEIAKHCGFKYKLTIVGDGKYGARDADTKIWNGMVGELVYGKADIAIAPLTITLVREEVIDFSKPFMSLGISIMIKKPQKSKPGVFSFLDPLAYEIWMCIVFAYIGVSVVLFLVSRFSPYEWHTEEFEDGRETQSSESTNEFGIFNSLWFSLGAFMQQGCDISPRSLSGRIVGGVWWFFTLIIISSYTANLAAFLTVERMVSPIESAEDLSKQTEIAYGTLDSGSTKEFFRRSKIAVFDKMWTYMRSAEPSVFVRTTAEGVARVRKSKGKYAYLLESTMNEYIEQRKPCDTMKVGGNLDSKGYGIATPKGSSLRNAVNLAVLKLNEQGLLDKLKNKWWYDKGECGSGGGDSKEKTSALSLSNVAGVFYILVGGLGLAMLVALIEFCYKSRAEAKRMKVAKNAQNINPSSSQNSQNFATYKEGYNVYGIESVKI
T9 sequence (P36544 23-502): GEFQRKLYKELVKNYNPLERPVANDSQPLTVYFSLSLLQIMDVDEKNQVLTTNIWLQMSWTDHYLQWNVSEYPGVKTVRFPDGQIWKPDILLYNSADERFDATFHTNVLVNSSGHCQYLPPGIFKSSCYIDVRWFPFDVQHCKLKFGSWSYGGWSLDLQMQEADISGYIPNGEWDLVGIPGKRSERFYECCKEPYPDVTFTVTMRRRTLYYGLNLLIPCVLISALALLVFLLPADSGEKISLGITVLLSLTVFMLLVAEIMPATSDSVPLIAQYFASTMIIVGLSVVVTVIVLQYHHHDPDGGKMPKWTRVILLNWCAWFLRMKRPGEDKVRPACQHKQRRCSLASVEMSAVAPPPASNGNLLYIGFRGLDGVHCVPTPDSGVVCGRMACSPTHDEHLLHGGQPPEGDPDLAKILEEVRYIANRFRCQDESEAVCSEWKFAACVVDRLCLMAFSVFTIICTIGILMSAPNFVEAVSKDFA
T10 sequence (Q13002 32-908, species assumed): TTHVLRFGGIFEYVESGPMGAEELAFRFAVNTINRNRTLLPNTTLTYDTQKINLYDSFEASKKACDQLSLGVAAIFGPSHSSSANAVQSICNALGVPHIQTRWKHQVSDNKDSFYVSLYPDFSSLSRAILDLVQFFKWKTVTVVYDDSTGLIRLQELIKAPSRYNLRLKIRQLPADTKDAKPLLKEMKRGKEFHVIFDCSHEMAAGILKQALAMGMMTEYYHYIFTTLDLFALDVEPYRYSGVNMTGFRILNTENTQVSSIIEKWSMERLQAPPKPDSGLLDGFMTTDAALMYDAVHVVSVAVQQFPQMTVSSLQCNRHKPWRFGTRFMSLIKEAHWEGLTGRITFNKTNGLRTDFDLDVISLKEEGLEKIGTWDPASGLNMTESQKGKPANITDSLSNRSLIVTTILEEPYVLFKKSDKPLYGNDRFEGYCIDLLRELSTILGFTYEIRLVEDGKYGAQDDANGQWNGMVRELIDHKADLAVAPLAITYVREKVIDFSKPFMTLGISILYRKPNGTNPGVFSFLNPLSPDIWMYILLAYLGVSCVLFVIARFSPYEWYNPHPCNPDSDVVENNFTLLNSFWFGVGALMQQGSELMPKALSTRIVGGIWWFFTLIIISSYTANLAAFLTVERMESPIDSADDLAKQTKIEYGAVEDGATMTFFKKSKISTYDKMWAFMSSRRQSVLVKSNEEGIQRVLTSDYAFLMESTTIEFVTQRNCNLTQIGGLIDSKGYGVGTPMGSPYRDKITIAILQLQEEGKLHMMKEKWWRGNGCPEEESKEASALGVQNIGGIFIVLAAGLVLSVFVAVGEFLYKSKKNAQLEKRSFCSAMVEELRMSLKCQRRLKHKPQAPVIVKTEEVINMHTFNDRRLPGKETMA
T6 sequence (Q8TCU5 24-1115, other chains not shown): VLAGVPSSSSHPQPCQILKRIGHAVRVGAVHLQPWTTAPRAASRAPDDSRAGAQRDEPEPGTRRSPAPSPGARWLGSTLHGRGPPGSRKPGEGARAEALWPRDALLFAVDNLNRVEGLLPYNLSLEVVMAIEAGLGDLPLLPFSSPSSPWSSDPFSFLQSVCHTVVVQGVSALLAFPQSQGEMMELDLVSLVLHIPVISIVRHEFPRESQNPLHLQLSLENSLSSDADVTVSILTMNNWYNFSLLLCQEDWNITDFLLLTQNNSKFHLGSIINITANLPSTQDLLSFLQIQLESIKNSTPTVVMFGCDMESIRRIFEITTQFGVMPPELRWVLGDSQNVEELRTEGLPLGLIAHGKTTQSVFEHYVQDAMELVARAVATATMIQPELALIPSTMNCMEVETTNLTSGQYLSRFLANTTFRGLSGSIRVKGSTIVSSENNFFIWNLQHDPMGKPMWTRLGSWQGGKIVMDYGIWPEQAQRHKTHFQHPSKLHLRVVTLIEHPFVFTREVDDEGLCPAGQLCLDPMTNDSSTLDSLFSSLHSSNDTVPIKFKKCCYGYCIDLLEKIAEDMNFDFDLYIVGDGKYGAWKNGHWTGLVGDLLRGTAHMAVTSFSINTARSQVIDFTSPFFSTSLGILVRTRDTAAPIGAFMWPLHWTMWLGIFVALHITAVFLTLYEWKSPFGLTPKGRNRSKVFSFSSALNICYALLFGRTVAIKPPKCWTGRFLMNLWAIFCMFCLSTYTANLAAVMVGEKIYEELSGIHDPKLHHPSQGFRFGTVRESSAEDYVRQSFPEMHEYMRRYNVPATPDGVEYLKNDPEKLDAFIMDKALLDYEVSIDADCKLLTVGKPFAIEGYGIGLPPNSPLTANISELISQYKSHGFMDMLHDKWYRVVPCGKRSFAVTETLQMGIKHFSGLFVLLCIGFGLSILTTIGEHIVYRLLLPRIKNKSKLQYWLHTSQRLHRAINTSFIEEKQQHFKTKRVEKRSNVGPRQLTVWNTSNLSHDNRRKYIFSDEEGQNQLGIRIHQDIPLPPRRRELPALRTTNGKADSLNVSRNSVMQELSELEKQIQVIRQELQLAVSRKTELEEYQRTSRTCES

CS(=O)(=O)Nc1ccc(OC[C@@H](O)CN2CCN(c3ccc(F)c(F)c3)CC2)cc1 [EU93-108, (S)-N-(4-(3-(4-(3,4-Difluorophenyl)piperazin-1-yl)-2-hydroxypropoxy)phenyl)methanesulfonamide]
% Control 10 µM EU93-108 (5-HT3A): 92.8 ± 2.7% | % Control 10 µM EU93-108 (α1β2γ2S-GABAA): 92.8 ± 1.5% | % Control 10 µM EU93-108 (α4β2-nACh): 3.2 ± 0.7% | % Control 10 µM EU93-108 (GluA2-R607Q): 98.4 ± 0.57% | % Control 10 µM EU93-108 (ρ-GABAC): 97 ± 1.5% | % Control 10 µM EU93-108 (hGluA3-L531Y): 94.7 ± 5.1% | % Control 10 µM EU93-108 (hGluN1/GluN3A): 103.6 ± 1.7% | % Control 10 µM EU93-108 (rGluN1/GluN3B): 108.8 ± 4.0% | % Control 10 µM EU93-108 (α1-Glycine): 105 ± 6.6% | % Control 10 µM EU93-108 (α7-nACh): 70.9 ± 6.5% | % Control 10 µM EU93-108 (GluK2): 88.1 ± 4.4% | % Control 10 µM EU93-108 (GluA1): 101.3 ± 1.9% | % Control 10 µM EU93-108 (GluN1/GluN2B; agonist 100 µM glutamate, 30 µM glycine, mean ± SEM): 13.2 ± 6.1% | inhibition of GluN2B relative to the other NMDAR subunits (GluN1/GluN2B; at 10 μM): approximately 18 fold | inhibition at 10 µM (GluN1/GluN2B; read-out: Mean % Inhibition by 10 μM EU93-108): 86.8 ± 6.1% | lowest dose that significantly increased latency (C57BL/6J mice; female mice): 20 mg/kg | potency when combined with morphine versus EU93-108 alone (C57BL/6J mice; male mice): approximately 3 fold | lowest dose that significantly increased latency (C57BL/6J mice; male mice): 10 mg/kg
